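Test compounds were applied to cells in 96-well plates for 48 hours at 5 doses. GI50 is the concentration that inhibits growth by half. TGI: concentration producing complete growth inhibition.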
Columns and labels:
Test in all cases: NCI anticancer screen, dose series, 48 h
[1] = tested on: UO-31 renal
[2] = tested on: ACHN renal
[3] = tested on: IGROV1 ovarian
[4] = tested on: HOP-62 NSCLC
[5] = tested on: SW-620 colon
[6] = tested on: DU-145 prostate
[7] = tested on: EKVX NSCLC
[8] = tested on: RXF 393 renal
[9] = tested on: A549 NSCLC
[10] = tested on: HOP-92 NSCLC
[11] = tested on: RPMI-8226 leukemia
[12] = tested on: NCI-H460 lung
[13] = tested on: HL-60(TB) leukemia
[14] = tested on: CCRF-CEM leukemia
[15] = tested on: KM12 colon
[16] = tested on: SK-OV-3 ovarian
[17] = tested on: OVCAR-4 ovarian
[18] = tested on: HCC-2998 colon
[19] = tested on: HT29 colon
[20] = tested on: BT-549 breast
[21] = tested on: HCT-116 colon
[22] = tested on: NCI-H23 lung
[23] = tested on: MDA-MB-231 breast
[24] = tested on: MALME-3M melanoma
[25] = tested on: SF-539 CNS
[26] = tested on: A498 renal
[27] = tested on: SF-268 CNS
[28] = tested on: OVCAR-8 ovarian
[29] = tested on: HCT-15 colon
[30] = tested on: MDA-MB-435
[31] = tested on: M14 melanoma
[32] = tested on: K-562 leukemia
[33] = tested on: OVCAR-3 ovarian
[34] = tested on: T-47D breast
[35] = tested on: SN12C renal
[36] = tested on: MCF7 breast
[37] = tested on: LOX IMVI melanoma
[38] = tested on: TK-10 renal
[39] = tested on: SF-295 CNS
[40] = tested on: CAKI-1 renal
[41] = tested on: U251 CNS
[42] = tested on: SNB-19 CNS
[43] = tested on: HS 578T breast
[44] = tested on: COLO 205 colon
[45] = tested on: UACC-62 melanoma
[46] = tested on: NCI/ADR-RES ovarian
[47] = tested on: SK-MEL-5 melanoma
[48] = tested on: 786-0 renal
[49] = tested on: OVCAR-5 ovarian
[50] = tested on: SNB-75 CNS
[51] = tested on: SK-MEL-2 melanoma
[52] = tested on: NCI-H226 lung
[53] = tested on: SR leukemia
[54] = tested on: UACC-257 melanoma
[55] = tested on: SK-MEL-28 melanoma
[56] = tested on: MOLT-4 leukemia
[57] = tested on: NCI-H522 lung
[58] = tested on: PC-3 prostate

With `COc1ccc(-c2cc(-c3ccc(Nc4nc(Nc5ccccc5)nc(Nc5ccc(Cl)cc5)n4)cc3)nc(N)n2)cc1` the GI50 [1] was 8.13 µM, the TGI [1] was greater than 50 µM and the GI50 [2] was 16.4 µM. It also gave a TGI [2] greater than 50 µM, a GI50 [3] of 6.27 µM and a TGI [3] of 28.2 µM. It also gave a GI50 [4] of 10.3 µM, a TGI [4] of 33.1 µM and a GI50 [5] of 13.1 µM. It also gave a TGI [5] of 44.9 µM, a GI50 [6] of 12.1 µM and a TGI [6] of 26.9 µM. For the same molecule, the GI50 [7] was 6.55 µM, the TGI [7] was greater than 50 µM and the GI50 [8] was 12.1 µM. It also gave a TGI [8] of 30.7 µM, a GI50 [9] of 20.5 µM and a TGI [9] greater than 50 µM. For the same molecule, the GI50 [10] was 5.28 µM, the TGI [10] was 19.3 µM and the GI50 [11] was 5.15 µM. For the same molecule, the TGI [11] was 20.5 µM, the GI50 [12] was 8.57 µM and the TGI [12] was 26.7 µM. The GI50 [13] was 2.31 µM, the TGI [13] was 17.9 µM and the GI50 [14] was 6 µM. It also gave a TGI [14] of 29.5 µM, a GI50 [15] of 4.72 µM and a TGI [15] of 45.1 µM. The GI50 [16] was 22.7 µM, the TGI [16] was greater than 50 µM and the GI50 [17] was 10.7 µM. The TGI [17] was greater than 50 µM, the GI50 [18] was 12.8 µM and the TGI [18] was 35 µM. The GI50 [19] was 7.56 µM, the TGI [19] was 21.8 µM and the GI50 [20] was 10 µM. It also gave a TGI [20] of 29.5 µM, a GI50 [21] of 6.74 µM and a TGI [21] of 16.8 µM. For the same molecule, the GI50 [22] was 9.4 µM, the TGI [22] was 25.9 µM and the GI50 [23] was 8.28 µM. The TGI [23] was greater than 50 µM, the GI50 [24] was 15.2 µM and the TGI [24] was greater than 50 µM. The GI50 [25] was 10.3 µM, the TGI [25] was 25.8 µM and the GI50 [26] was 9.29 µM. It also gave a TGI [26] of 20 µM, a GI50 [27] of 13.3 µM and a TGI [27] of 46.8 µM. It also gave a GI50 [28] of 15.1 µM, a TGI [28] greater than 50 µM and a GI50 [29] of 13.5 µM. It also gave a TGI [29] greater than 50 µM, a GI50 [30] of 14.5 µM and a TGI [30] greater than 50 µM. It also gave a GI50 [31] of 9.33 µM, a TGI [31] of 28.8 µM and a GI50 [32] of 4.63 µM. For the same molecule, the TGI [32] was 16.5 µM, the GI50 [33] was 11.3 µM and the TGI [33] was greater than 50 µM. For the same molecule, the GI50 [34] was 6.3 µM, the TGI [34] was 21.7 µM and the GI50 [35] was 11.8 µM. It also gave a TGI [35] of 32.6 µM, a GI50 [36] of 5.34 µM and a TGI [36] of 21 µM. It also gave a GI50 [37] of 11.1 µM, a TGI [37] of 39 µM and a GI50 [38] of 14.2 µM. For the same molecule, the TGI [38] was greater than 50 µM, the GI50 [39] was 7.92 µM and the TGI [39] was 25.8 µM. For the same molecule, the GI50 [40] was 5.4 µM, the TGI [40] was 23.3 µM and the GI50 [41] was 8.41 µM. The TGI [41] was greater than 50 µM, the GI50 [42] was 9.03 µM and the TGI [42] was 24.6 µM. For the same molecule, the GI50 [43] was 6.65 µM, the TGI [43] was 32.2 µM and the GI50 [44] was 2.29 µM. The TGI [44] was 16.7 µM, the GI50 [45] was 12.1 µM and the TGI [45] was greater than 50 µM. For the same molecule, the GI50 [46] was 37.4 µM, the TGI [46] was greater than 50 µM and the GI50 [47] was 6.55 µM. For the same molecule, the TGI [47] was 20.9 µM, the GI50 [48] was 11.5 µM and the TGI [48] was 33.1 µM. For the same molecule, the GI50 [49] was 9.72 µM, the TGI [49] was 26.3 µM and the GI50 [50] was 6.02 µM. It also gave a TGI [50] of 48.1 µM, a GI50 [51] of 13.1 µM and a TGI [51] of 44.1 µM. The GI50 [52] was 12.9 µM, the TGI [52] was greater than 50 µM and the GI50 [53] was 5.63 µM. The TGI [53] was 18.7 µM, the GI50 [54] was 15.9 µM and the TGI [54] was 45.5 µM. For the same molecule, the GI50 [55] was 10.9 µM, the TGI [55] was 26.5 µM and the GI50 [56] was 0.623 µM. The TGI [56] was 12 µM, the GI50 [57] was 9.02 µM and the TGI [57] was 27.1 µM.

`NC(N)=N/N=C/c1c(-c2ccsc2)nc2n1CCS2` gave a GI50 [58] of 17.5 µM, a TGI [58] of 39.2 µM and a GI50 [1] of 65.5 µM. For the same molecule, the TGI [1] was greater than 100 µM, the GI50 [2] was 18.5 µM and the TGI [2] was 46 µM. The GI50 [3] was 48.8 µM, the TGI [3] was greater than 100 µM and the GI50 [4] was 19.8 µM. It also gave a TGI [4] of 52.8 µM, a GI50 [5] of 33.2 µM and a TGI [5] greater than 100 µM. It also gave a GI50 [7] of 58 µM, a TGI [7] greater than 100 µM and a GI50 [8] of 30.5 µM. It also gave a TGI [8] greater than 100 µM, a GI50 [9] of 73.7 µM and a TGI [9] greater than 100 µM. For the same molecule, the GI50 [11] was 31.9 µM, the TGI [11] was greater than 100 µM and the GI50 [12] was 27.9 µM. It also gave a TGI [12] greater than 100 µM, a GI50 [14] of 19.5 µM and a TGI [14] of 54.6 µM. For the same molecule, the GI50 [15] was 17.1 µM, the TGI [15] was 43.1 µM and the GI50 [16] was 35.4 µM. The TGI [16] was greater than 100 µM, the GI50 [18] was 16 µM and the TGI [18] was 31.4 µM. It also gave a GI50 [19] of 51 µM, a TGI [19] greater than 100 µM and a GI50 [20] of 33.9 µM. For the same molecule, the TGI [20] was 78.7 µM, the GI50 [21] was 14.3 µM and the TGI [21] was 27.3 µM. For the same molecule, the GI50 [22] was 23.8 µM, the TGI [22] was 80 µM and the GI50 [23] was 28.1 µM. The TGI [23] was 82.1 µM, the GI50 [25] was 14.4 µM and the TGI [25] was 30.3 µM. For the same molecule, the GI50 [26] was 64.1 µM, the TGI [26] was greater than 100 µM and the GI50 [27] was 18.4 µM. The TGI [27] was 82.2 µM, the GI50 [28] was 49 µM and the TGI [28] was greater than 100 µM. It also gave a GI50 [29] of 24.7 µM, a TGI [29] of 72.7 µM and a GI50 [30] of 19.8 µM. It also gave a TGI [30] of 47.9 µM, a GI50 [31] of 15.1 µM and a TGI [31] of 29.1 µM. The GI50 [32] was 22.2 µM, the TGI [32] was 65.8 µM and the GI50 [33] was 0.365 µM. For the same molecule, the TGI [33] was 24.1 µM, the GI50 [34] was 30 µM and the TGI [34] was 66.3 µM. The GI50 [35] was 15.5 µM, the TGI [35] was 54.9 µM and the GI50 [36] was 18 µM. The TGI [36] was 50.2 µM, the GI50 [37] was 16.3 µM and the TGI [37] was 30.6 µM. The GI50 [38] was 26 µM, the TGI [38] was 61.1 µM and the GI50 [39] was greater than 100 µM. For the same molecule, the TGI [39] was greater than 100 µM, the GI50 [41] was 14.6 µM and the TGI [41] was 35.7 µM. It also gave a GI50 [42] of 26.9 µM, a TGI [42] greater than 100 µM and a GI50 [43] of 34.9 µM. The TGI [43] was greater than 100 µM, the GI50 [44] was 19.8 µM and the TGI [44] was 48.5 µM. It also gave a GI50 [45] of 21.6 µM, a TGI [45] of 69.9 µM and a GI50 [46] greater than 100 µM. For the same molecule, the TGI [46] was greater than 100 µM, the GI50 [47] was 20 µM and the TGI [47] was 41.4 µM. For the same molecule, the GI50 [48] was 15.4 µM, the TGI [48] was 38.7 µM and the GI50 [49] was 19.9 µM. The TGI [49] was 48.2 µM, the GI50 [51] was 51.9 µM and the TGI [51] was greater than 100 µM. It also gave a GI50 [52] of 13 µM, a TGI [52] of 40.1 µM and a GI50 [53] of 12.1 µM. For the same molecule, the TGI [53] was 28.8 µM, the GI50 [54] was 20.8 µM and the TGI [54] was 53.1 µM. For the same molecule, the GI50 [56] was 15.3 µM, the TGI [56] was 42.9 µM and the GI50 [57] was 39.3 µM. It also gave a TGI [57] greater than 100 µM.
